Assay results taken from patent US5286721A, “1-azabicyclo[3.2.0]hept-2-ene-2-carboxylic acid compounds” (Fujisawa Pharmaceutical Co., Ltd., priority 1990, dated 1994).

Test system: S. aureus 6
Assay: In vitro antimicrobial activity (two-fold agar-plate dilution method)
Assay type: cell-based
Settings: Staphylococcus aureus, heart infusion agar (HI-agar), 10^6 viable cells per ml, 37° C., 20 hours, read-out: MIC (minimal inhibitory concentration)
Experimental: In vitro Antimicrobial Activity was determined by the two-fold agar-plate dilution method as described below.
One loopful of an overnight culture of a test strain in Trypticase-soy broth (10^6 viable cells per ml) was streaked on heart infusion agar (HI-agar) containing graded concentrations of the test compound, and the minimal inhibitory concentration (MIC) was expressed in terms of μg/ml after incubation at 37° C. for 20 hours.

MIC: ≤ 0.025 µg/mL
SMILES: C[C@@H](O)[C@H]1C(=O)N2C(C(=O)O)=C(C3CN=CNC3)C[C@H]12 (stereo partly drawn) [Example 1, [5R,6S)-6-[(R)-1-hydroxyethyl]-3-[3,4,5,6-tetrahydropyrimidin-5-yl]-7-oxo-1-azabicyclo[3.2.0]hept-2-ene-2-carboxylic acid]
